Assay results published in PubChem BioAssay (NCI).
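Step 1: Grow cells in 96-well plates. Step 2: Expose to compound for 48 hours at 5 concentrations. Step 3: Interpolate endpoints linearly; if unreached, use highest concentration. Here, GI50 denotes the concentration required for 50% inhibition of growth. TGI marks complete inhibition of growth.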

Experiments:
Test in all cases: NCI tumour cell line growth inhibition, 48 h
UO-31 renal = system: UO-31 renal
U251 CNS = system: U251 CNS
DMS 114 small cell lung = system: DMS 114 small cell lung
RPMI-8226 leukemia = system: RPMI-8226 leukemia
SNB-75 CNS = system: SNB-75 CNS
HOP-92 NSCLC = system: HOP-92 NSCLC
SK-OV-3 ovarian = system: SK-OV-3 ovarian
SW-620 colon = system: SW-620 colon
HOP-18 NSCLC = system: HOP-18 NSCLC
SK-MEL-5 melanoma = system: SK-MEL-5 melanoma
ACHN renal = system: ACHN renal
A549 NSCLC = system: A549 NSCLC
SK-MEL-2 melanoma = system: SK-MEL-2 melanoma
SR leukemia = system: SR leukemia
IGROV1 ovarian = system: IGROV1 ovarian
SF-539 CNS = system: SF-539 CNS
NCI-H522 lung = system: NCI-H522 lung
EKVX NSCLC = system: EKVX NSCLC
DLD-1 colon = system: DLD-1 colon
SF-295 CNS = system: SF-295 CNS
CCRF-CEM leukemia = system: CCRF-CEM leukemia
NCI-H23 lung = system: NCI-H23 lung
HCC-2998 colon = system: HCC-2998 colon
LXFL 529 NSCLC = system: LXFL 529 NSCLC
XF 498 CNS = system: XF 498 CNS
OVCAR-8 ovarian = system: OVCAR-8 ovarian
DMS 273 small cell lung = system: DMS 273 small cell lung
K-562 leukemia = system: K-562 leukemia
MALME-3M melanoma = system: MALME-3M melanoma
UACC-257 melanoma = system: UACC-257 melanoma
UACC-62 melanoma = system: UACC-62 melanoma
MOLT-4 leukemia = system: MOLT-4 leukemia
SF-268 CNS = system: SF-268 CNS
COLO 205 colon = system: COLO 205 colon
HCT-15 colon = system: HCT-15 colon
NCI-H226 lung = system: NCI-H226 lung
TK-10 renal = system: TK-10 renal
SK-MEL-28 melanoma = system: SK-MEL-28 melanoma
NCI-H460 lung = system: NCI-H460 lung
KM20L2 colon = system: KM20L2 colon
CAKI-1 renal = system: CAKI-1 renal
HT29 colon = system: HT29 colon
HCT-116 colon = system: HCT-116 colon
SNB-19 CNS = system: SNB-19 CNS
OVCAR-5 ovarian = system: OVCAR-5 ovarian
KM12 colon = system: KM12 colon
OVCAR-4 ovarian = system: OVCAR-4 ovarian
HL-60(TB) leukemia = system: HL-60(TB) leukemia
LOX IMVI melanoma = system: LOX IMVI melanoma
786-0 renal = system: 786-0 renal
RXF-631 renal = system: RXF-631 renal
SNB-78 CNS = system: SNB-78 CNS
M19-MEL melanoma = system: M19-MEL melanoma
A498 renal = system: A498 renal
HOP-62 NSCLC = system: HOP-62 NSCLC
SN12C renal = system: SN12C renal
M14 melanoma = system: M14 melanoma
RXF 393 renal = system: RXF 393 renal

## CC(=O)[CH-]C(C)=O.CC(=O)[CH-]C(C)=O.[O-]c1ccccc1.[O-]c1ccccc1.[Ti+4]
UO-31 renal
  GI50: > 100 µM
  TGI: > 100 µM
U251 CNS
  GI50: > 100 µM
  TGI: > 100 µM
DMS 114 small cell lung
  GI50: > 100 µM
  TGI: > 100 µM
RPMI-8226 leukemia
  GI50: > 100 µM
  TGI: > 100 µM
SNB-75 CNS
  GI50: > 100 µM
  TGI: > 100 µM
HOP-92 NSCLC
  GI50: > 100 µM
  TGI: > 100 µM
SK-OV-3 ovarian
  GI50: > 100 µM
  TGI: > 100 µM
SW-620 colon
  GI50: > 100 µM
  TGI: > 100 µM
HOP-18 NSCLC
  GI50: > 100 µM
  TGI: > 100 µM
SK-MEL-5 melanoma
  GI50: > 100 µM
  TGI: > 100 µM
ACHN renal
  GI50: > 100 µM
  TGI: > 100 µM
A549 NSCLC
  GI50: > 100 µM
  TGI: > 100 µM
SK-MEL-2 melanoma
  GI50: > 100 µM
  TGI: > 100 µM
SR leukemia
  GI50: > 100 µM
  TGI: > 100 µM
IGROV1 ovarian
  GI50: > 100 µM
  TGI: > 100 µM
SF-539 CNS
  GI50: > 100 µM
  TGI: > 100 µM
NCI-H522 lung
  GI50: > 100 µM
  TGI: > 100 µM
EKVX NSCLC
  GI50: > 100 µM
  TGI: > 100 µM
DLD-1 colon
  GI50: > 100 µM
  TGI: > 100 µM
SF-295 CNS
  GI50: > 100 µM
  TGI: > 100 µM
CCRF-CEM leukemia
  GI50: > 100 µM
  TGI: > 100 µM
NCI-H23 lung
  GI50: > 100 µM
  TGI: > 100 µM
HCC-2998 colon
  GI50: > 100 µM
  TGI: > 100 µM
LXFL 529 NSCLC
  GI50: > 100 µM
  TGI: > 100 µM
XF 498 CNS
  GI50: > 100 µM
  TGI: > 100 µM
OVCAR-8 ovarian
  GI50: > 100 µM
  TGI: > 100 µM
DMS 273 small cell lung
  GI50: > 100 µM
  TGI: > 100 µM
K-562 leukemia
  GI50: > 100 µM
  TGI: > 100 µM
MALME-3M melanoma
  GI50: > 100 µM
  TGI: > 100 µM
UACC-257 melanoma
  GI50: > 100 µM
  TGI: > 100 µM
UACC-62 melanoma
  GI50: > 100 µM
  TGI: > 100 µM
MOLT-4 leukemia
  GI50: > 100 µM
  TGI: > 100 µM
SF-268 CNS
  GI50: > 100 µM
  TGI: > 100 µM
COLO 205 colon
  GI50: > 100 µM
  TGI: > 100 µM
HCT-15 colon
  GI50: > 100 µM
  TGI: > 100 µM
NCI-H226 lung
  GI50: > 100 µM
  TGI: > 100 µM
TK-10 renal
  GI50: > 100 µM
  TGI: > 100 µM
SK-MEL-28 melanoma
  GI50: > 100 µM
  TGI: > 100 µM
NCI-H460 lung
  GI50: > 100 µM
  TGI: > 100 µM
KM20L2 colon
  GI50: > 100 µM
  TGI: > 100 µM
CAKI-1 renal
  GI50: > 100 µM
  TGI: > 100 µM
HT29 colon
  GI50: > 100 µM
  TGI: > 100 µM
HCT-116 colon
  GI50: > 100 µM
  TGI: > 100 µM
SNB-19 CNS
  GI50: > 100 µM
  TGI: > 100 µM
OVCAR-5 ovarian
  GI50: > 100 µM
  TGI: > 100 µM
KM12 colon
  GI50: > 100 µM
  TGI: > 100 µM
OVCAR-4 ovarian
  GI50: > 100 µM
  TGI: > 100 µM
HL-60(TB) leukemia
  GI50: > 100 µM
  TGI: > 100 µM
LOX IMVI melanoma
  GI50: > 100 µM
  TGI: > 100 µM
786-0 renal
  GI50: > 100 µM
  TGI: > 100 µM

## COc1ccccc1NC(=O)C(=O)C(C(=O)c1ccccc1F)C1OC(=O)c2ccccc21 (stereo not given)
UO-31 renal
  TGI: 98.7 µM
U251 CNS
  TGI: 31.1 µM
DMS 114 small cell lung
  TGI: 64.3 µM
RPMI-8226 leukemia
  TGI: 69.6 µM
SNB-75 CNS
  TGI: 62.8 µM
HOP-92 NSCLC
  TGI: > 100 µM
SK-OV-3 ovarian
  TGI: 99.7 µM
SW-620 colon
  TGI: > 100 µM
SK-MEL-5 melanoma
  TGI: > 100 µM
ACHN renal
  TGI: > 100 µM
A549 NSCLC
  TGI: > 100 µM
SK-MEL-2 melanoma
  TGI: > 100 µM
RXF-631 renal
  TGI: 67.8 µM
SR leukemia
  TGI: 60.7 µM
IGROV1 ovarian
  TGI: > 100 µM
SF-539 CNS
  TGI: 66.1 µM
NCI-H522 lung
  TGI: 35.7 µM
EKVX NSCLC
  TGI: > 100 µM
DLD-1 colon
  TGI: > 100 µM
SF-295 CNS
  TGI: > 100 µM
SNB-78 CNS
  TGI: > 100 µM
CCRF-CEM leukemia
  TGI: 67 µM
NCI-H23 lung
  TGI: 57.6 µM
HCC-2998 colon
  TGI: 28.8 µM
LXFL 529 NSCLC
  TGI: > 100 µM
XF 498 CNS
  TGI: > 100 µM
OVCAR-8 ovarian
  TGI: 47.2 µM
M19-MEL melanoma
  TGI: 61.6 µM
DMS 273 small cell lung
  TGI: > 100 µM
K-562 leukemia
  TGI: > 100 µM
UACC-257 melanoma
  TGI: > 100 µM
UACC-62 melanoma
  TGI: 34.9 µM
A498 renal
  TGI: > 100 µM
MOLT-4 leukemia
  TGI: > 100 µM
SF-268 CNS
  TGI: > 100 µM
COLO 205 colon
  TGI: 43.6 µM
HOP-62 NSCLC
  TGI: > 100 µM
HCT-15 colon
  TGI: 69.2 µM
NCI-H226 lung
  TGI: 43.8 µM
TK-10 renal
  TGI: > 100 µM
SK-MEL-28 melanoma
  TGI: > 100 µM
NCI-H460 lung
  TGI: 74.7 µM
KM20L2 colon
  TGI: 58.2 µM
CAKI-1 renal
  TGI: 86.7 µM
HT29 colon
  TGI: 62.5 µM
SN12C renal
  TGI: 87.2 µM
HCT-116 colon
  TGI: 44.3 µM
SNB-19 CNS
  TGI: 64 µM
OVCAR-5 ovarian
  TGI: > 100 µM
KM12 colon
  TGI: 64 µM
M14 melanoma
  TGI: > 100 µM
RXF 393 renal
  TGI: 68.4 µM
OVCAR-4 ovarian
  TGI: > 100 µM
HL-60(TB) leukemia
  TGI: 56.5 µM
LOX IMVI melanoma
  TGI: 39.2 µM
